# Results taken from PubChem BioAssay AID1918998 (Molecular Pharmacology Branch, DTP, NCI, 2023).
# Several values for one entry are separate records, joined by “and”; a condition that tells them apart may be missing. Equal values may be shown once.
# Test system: 521955-158-R2-J5-PDC complex spheroid growth
# Assay: Anticancer human tumor 521955-158-R2-J5-PDC patient-derived pancreatic carcinoma cell line growth inhibition [AhR]
# Details: for viability, T/C: stronger effect = lower value
# From the text: Multicellular complex tumor spheroid response to aryl hydrocarbon receptor antagonists in combination with a variety of drugs and investigational agents in selected tumor cell lines
# The current study was undertaken to assess response to aryl hydrocarbon receptor antagonists in combination with standard-of-care drugs and investigational agents in solid tumor complex spheroid models. Complex spheroids include a stromal component modeled by human endothelial cells (HUVEC) and fibroblasts modeled by human mesenchymal stem cells (MSCs). The concentration ranges selected for each drug and investigational agent were based upon clinically achievable concentrations if the clinical Cmax of the agent was known.
# Compounds. The drugs and investigational agents: BAY 2416964 (NSC825713), GNF351 (NSC835774), CH-223191 (NSC835775), CPI-455 (NSC825282), aza-TdCyd (NSC777586), decitabine (NSC127716), belinostat (NSC758774), entinostat (NSC756642), pevonedistat (NSC761192), tazemetostat (NSC777109), talazoparib (NSC765396), olaparib (NSC753686), selinexor (NSC780203), nedisertib (M3814, NSC802822), bortezomib (NSC756655), venetoclax (NSC766270), doxorubicin (NSC123127), elimusertib (BAY189344, NSC800525), ceralasertib (AZD6738, NSC777638), TAK-243 (NSC785004), alisertib (NSC759677), etoposide (NSC141540), topotecan (NSC609699), eribulin (NSC707389), gemcitabine (NSC613327), carboplatin (NSC241240), cisplatin (NSC119875), and SN-38 (NSC673596) were obtained from the National Cancer Institute (NCI) Developmental Therapeutics Program Chemical Repository (32). The FDA-approved anticancer drug set is available from the Developmental Therapeutics Program at https://dtp.cancer.gov/organization/dscb/obtaining/available plates.htm. […] The stock solutions were prepared in dimethyl sulfoxide (DMSO, Sigma-Aldrich, St. Louis, MO, cat. D2650), except for the platinum compounds which were prepared in saline (Quality Biological, Gaithersburg, MD, cat. 114-055-101), at 800-fold the tested concentration and stored at -70 degrees C prior to their use. All drugs and investigational agents were tested over a range starting from a high concentration at or near the clinical Cmax and decreasing in half-log increments. If the clinical Cmax for an agent had not been determined, the highest concentration tested was 10 microM (Table 1).
# Cell Culture. All cells were maintained in an incubator at 37 degrees C and 5% CO2 with 95% humidity. The PDC lines were cultured according to standard operating procedures established by the NCI PDMR (https://pdmr.cancer.gov). Briefly, all PDCs were thawed and cultured in Matrigel-coated flasks prepared with a working solution of 1X Ham's F-12 nutrient mix, without supplementation (Invitrogen, Waltham, MA, cat. 11765054), 100 U/mL penicillin-streptomycin (Invitrogen, cat. 15140122), and 2.5% Matrigel (Corning Inc., Corning, NY, cat. 354248) for the first three passages. All PDCs were cultured in complete DMEM/F-12 media containing advanced DMEM/F-12 (Invitrogen, cat. 12634028), 4.9% defined fetal bovine serum, heat inactivated (HyClone Laboratories Inc., Logan, UT, cat. SH30070.03HI), 389 ng/mL hydrocortisone (Sigma-Aldrich, cat. H4001), 9.7 ng/mL human EGF recombinant protein (Invitrogen, cat. PHG0313), 23.4 microg/mL adenine (Sigma-Aldrich, cat. A2786), 97.3 U/mL penicillin-streptomycin (Invitrogen, cat. 15140122), 1.9 mM L-glutamine (Invitrogen, cat. 25030081), and 9.7 microM Y-27632 dihydrochloride (Tocris Bioscience, Bristol, United Kingdom, cat. 1254). The PDCs were cultured in complete DMEM/F12 media without 10 microM Y-27632 dihydrochloride for at least two passages prior to the screen. The established cell lines NCI-H1341 and […] were cultured in DMEM/F-12, HEPES (Invitrogen, cat. 11330032), 5% defined fetal bovine serum (HyClone Laboratories Inc., cat. SH30070.03), ITS premix universal culture supplement [insulin (5 microg/mL), transferrin (5 microg/mL), and selenious acid (5 ng/mL)] […]
# 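For viability, T/C in this document: spheroids mix tumor cells with HUVEC endothelium and human MSC stroma; luminescence taken as viability surrogate after a week of drug exposure.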
Structure (SMILES),"viability, T/C (compound 0.0316 µM)","viability, T/C (compound 0.1 µM)","viability, T/C (compound 0.316 µM)","viability, T/C (compound 1 µM)","viability, T/C (compound 3.16 µM)","viability, T/C (compound 10 µM)",IC50 (curve of compound),further results
COc1cccc2c1C(=O)c1c(O)c3c(c(O)c1C2=O)CC(O)(C(=O)CO)CC3OC1CC(N)C(O)C(C)O1 (configuration not stated),60.2% and 42.4% and 46.4%,51.7% and 29.8% and 35.3%,40.5% and 30.9% and 23.8%,2.19% and 6.39% and 4.25%,3.29% and 2.59% and 2.1%,12.3% and 10.8% and 14%,155 nM and < 31.6 nM,–
Cc1ccccc1N=Nc1ccc(NC(=O)c2ccnn2C)c(C)c1,–,–,–,–,–,–,–,"IC50 (compound alone, run of 06/14/2022): > 10000 nM"
Cc1cncc(-c2nc(NCCc3c[nH]c4ccccc34)c3ncn(C(C)C)c3n2)c1,–,–,–,–,–,–,–,"IC50 (compound alone, run of 06/06/2022): > 10000 nM"
Cn1ncnc1C1c2n[nH]c(=O)c3cc(F)cc(c23)NC1c1ccc(F)cc1 (configuration not stated),85.7% and 73.9% and 97.8%,84.5% and 74% and 80.7%,–,–,–,–,> 100 nM,"viability, T/C (compound 0.000316 µM): 106% and 64.7% and 90.7%; viability, T/C (compound 0.001 µM): 103% and 97.9% and 110%; viability, T/C (compound 0.00316 µM): 94.6% and 105% and 89.1%; viability, T/C (compound 0.01 µM): 94.8% and 75% and 89.5%"
NS(=O)(=O)OCC1CC(n2ccc3c(NC4CCc5ccccc54)ncnc32)CC1O (configuration not stated),86.2% and 98.4% and 88.1%,99.3% and 98.1% and 95.9%,83.6% and 87.9% and 66%,54.8% and 54.6% and 36.6%,36.5% and 32.9% and 19.3%,30.5% and 21% and 16.8%,1330 nM and 598 nM,–
Nc1ccccc1NC(=O)c1ccc(CNC(=O)OCc2cccnc2)cc1,97.7% and 110% and 106%,123% and 118% and 108%,106% and 127% and 115%,98.9% and 105% and 80%,63.6% and 66.5% and 53.9%,31.6% and 32.4% and 21.6%,5150 nM and 5470 nM and 3260 nM,–
Nc1ccn(C2OC(CO)C(O)C2(F)F)c(=O)n1 (configuration not stated),73.8% and 54.7% and 44.6%,79.4% and 73.8% and 60.9%,62.2% and 61% and 53.9%,39.4% and 28.6% and 24.9%,29.8% and 15.9% and 17.8%,28.7% and 13.2% and 15.3%,590 nM and 472 nM and 359 nM,–
Nc1ncn(C2CC(O)C(CO)O2)c(=O)n1 (configuration not stated),88.8% and 87.9% and 88.9%,73% and 52.6% and 68.5%,65.5% and 53.7% and 63%,48.3% and 38.4% and 39.5%,–,–,907 nM and 158 nM and 564 nM,"viability, T/C (compound 0.00316 µM): 92.7% and 87.2% and 101%; viability, T/C (compound 0.01 µM): 90.8% and 72.2% and 80.4%"
Nc1ncn(C2CC(O)C(CO)S2)c(=O)n1 (configuration not stated),–,–,–,–,–,–,> 300 nM,"viability, T/C (compound 0.000949 µM): 104% and 88.3% and 99.6%; viability, T/C (compound 0.003 µM): 100% and 82.5% and 108%; viability, T/C (compound 0.00949 µM): 97.7% and 84.6% and 93%; viability, T/C (compound 0.03 µM): 93.5% and 74.3% and 75.1%; viability, T/C (compound 0.0949 µM): 98.7% and 75.1% and 73.7%; viability, T/C (compound 0.3 µM): 91.9% and 72.8% and 71.8%"
O=C(C=Cc1cccc(S(=O)(=O)Nc2ccccc2)c1)NO,97.4% and 85.1% and 115%,95.1% and 99.1% and 103%,94.2% and 96.2% and 102%,88.4% and 104% and 69.3%,59.1% and 79.9% and 54.3%,40.5% and 52.5% and 24.2%,5550 nM and > 10000 nM and 3320 nM,–
O=C(C=Cn1cnc(-c2cc(C(F)(F)F)cc(C(F)(F)F)c2)n1)NNc1cnccn1,–,–,–,–,–,–,256 nM and 163 nM and 48.8 nM,"viability, T/C (compound 0.00949 µM): 73.8% and 59.8% (2×); viability, T/C (compound 0.03 µM): 59.6% and 58.9% and 58.5%; viability, T/C (compound 0.0949 µM): 50.6% and 38.9% and 40.5%; viability, T/C (compound 0.3 µM): 55.6% and 49.5% and 37.7%; viability, T/C (compound 0.949 µM): 45.3% and 45.9% and 37.6%; viability, T/C (compound 3 µM): 29.1% and 24.8% and 27.1%"
O=C(c1cc(Cc2n[nH]c(=O)c3ccccc23)ccc1F)N1CCN(C(=O)C2CC2)CC1,95.8% and 118% and 96.5%,104% and 72.7% and 112%,117% and 80.1% and 96%,89.8% and 84.7% and 92.4%,104% and 92.2% and 90.4%,84.5% and 65.4% and 76.3%,> 10000 nM,–
